Measurements from the NIST ThermoML archive (doi:10.1021/je700700f).

Experiments:
[1] = 298.15 K, Liquid; for viscosity: Capillary tube (Ostwald / Ubbelohde) method
[2] = refractive index (Na D-line) (dimensionless); conditions: 298.15 K; 101.33 kPa; Liquid; Standard Abbe refractometry
[3] = refractive index (Na D-line) (dimensionless); xn = mol fraction of the nth substance listed; conditions: 298.15 K, 101 kPa, Liquid, Standard Abbe refractometry
[4] = xn = mol fraction of the nth substance listed; conditions: 298.15 K, 101 kPa, Liquid; for viscosity: Capillary tube (Ostwald / Ubbelohde) method

CCOS(=O)(=O)[O-].CCn1cc[n+](C)c1 [1-ethyl-3-methylimidazolium ethyl sulfate]
[1], 101.33 kPa
Conditions	mass density [kg/m3]	viscosity [mPa·s]
–	1237.63	97.58

CCCO [propan-1-ol]
[1], 101 kPa
Conditions	mass density [kg/m3]	viscosity [mPa·s]
–	799.6	2.017

Conditions	refractive index
[2]	1.38309

CCCO [propan-1-ol] + O
Conditions	mass density, [4] [kg/m3]	refractive index, [3]	viscosity, [4] [mPa·s]
x1 = 0.0504	975.1	1.34612	1.616
x1 = 0.0993	953.3	1.35475	2.121
x1 = 0.1986	914.9	1.36491	2.599
x1 = 0.2979	887.2	1.37116	2.691
x1 = 0.3949	866.9	1.37516	2.61
x1 = 0.4955	850.3	1.37805	2.494
x1 = 0.5953	836.9	1.38008	2.339
x1 = 0.6995	825.6	1.38154	2.221
x1 = 0.7969	816.3	1.38239	2.124
x1 = 0.8983	807.7	1.38299	2.026
x1 = 0.9518	803.5	1.38308	1.998
x1 = 1	799.6	1.38309	2.017

CC(C)O [propan-2-ol]
[1], 101 kPa
Conditions	mass density [kg/m3]	viscosity [mPa·s]
–	780.7	2.082

Conditions	refractive index
[2]	1.375

CC(C)O [propan-2-ol] + O
Conditions	mass density, [4] [kg/m3]	refractive index, [3]	viscosity, [4] [mPa·s]
x1 = 0.0491	974.6	1.3456	1.718
x1 = 0.1008	953.6	1.3557	2.495
x1 = 0.2011	912.6	1.365	3.038
x1 = 0.2994	881.6	1.3697	3.087
x1 = 0.3992	857.7	1.3724	2.924
x1 = 0.4981	838.8	1.374	2.693
x1 = 0.5979	823.5	1.3749	2.489
x1 = 0.6987	810.6	1.3754	2.274
x1 = 0.7993	799.4	1.3756	2.153
x1 = 0.8998	789.8	1.3754	2.073
x1 = 0.9495	785.4	1.3752	2.063
x1 = 1	780.7	1.375	2.082
